Source: publication PMC8773328, “Antioxidative and Analgesic Effects of Naringin through Selective Inhibition of Transient Receptor Potential Vanilloid Member 1” (Antioxidants, 2021)

Tests used:
Type in all cases: cell-based
[1] = biological target: T1, Transient receptor potential vanilloid member 1 (TRPV1) (Rattus norvegicus, UniProt O35433); assay: two-electrode voltage clamp in Xenopus oocytes expressing TRPV1, inhibition of current (reference antagonist)
T1 construct: Rat TRPV1 cDNA (NM_031982)

[2] = biological target: T1, Transient receptor potential vanilloid member 1 (TRPV1); assay: two-electrode voltage clamp in Xenopus oocytes expressing TRPV1, inhibition of capsaicin-induced current
[3] = biological target: T2, Transient receptor potential vanilloid member 1 (TRPV1) (Rattus norvegicus, UniProt O35433, N628A); assay: two-electrode voltage clamp in Xenopus oocytes expressing mutant TRPV1, inhibition of capsaicin-induced current (reduced maximum inhibition); details: read-out: Hill Equation / y = Vmin + (Vmax - Vmin) × x^n/(k^n x^n) / Value
T2 construct: Rat TRPV1 cDNA (NM_031982), N628A
T2 sequence (O35433 whole entry N628A): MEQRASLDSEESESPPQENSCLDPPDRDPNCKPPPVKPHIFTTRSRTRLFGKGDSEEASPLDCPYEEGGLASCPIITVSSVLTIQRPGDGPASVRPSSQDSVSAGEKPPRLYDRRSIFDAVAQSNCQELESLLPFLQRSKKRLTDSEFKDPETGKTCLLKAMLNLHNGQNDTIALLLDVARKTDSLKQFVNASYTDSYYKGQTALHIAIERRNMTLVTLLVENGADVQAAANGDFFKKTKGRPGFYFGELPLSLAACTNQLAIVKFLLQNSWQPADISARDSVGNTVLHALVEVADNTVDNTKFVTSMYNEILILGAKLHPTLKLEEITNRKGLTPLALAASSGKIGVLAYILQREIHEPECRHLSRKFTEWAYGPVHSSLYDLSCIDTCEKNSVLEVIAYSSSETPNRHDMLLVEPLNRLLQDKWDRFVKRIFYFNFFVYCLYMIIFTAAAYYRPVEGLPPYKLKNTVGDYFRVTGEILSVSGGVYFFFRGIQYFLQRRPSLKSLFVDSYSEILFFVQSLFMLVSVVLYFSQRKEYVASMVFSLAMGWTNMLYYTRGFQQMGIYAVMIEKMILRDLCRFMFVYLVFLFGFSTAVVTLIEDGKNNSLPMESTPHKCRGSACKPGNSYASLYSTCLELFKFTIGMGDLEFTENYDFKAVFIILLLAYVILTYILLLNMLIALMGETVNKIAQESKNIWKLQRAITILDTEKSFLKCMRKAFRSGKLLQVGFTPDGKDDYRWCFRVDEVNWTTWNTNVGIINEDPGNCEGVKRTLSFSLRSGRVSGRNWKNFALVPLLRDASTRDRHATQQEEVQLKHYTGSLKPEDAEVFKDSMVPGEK

T1 sequence (O35433 whole entry): as the sequence (O35433 whole entry N628A) above, with A628N counted along it

| SMILES | IC50 [1] | IC50 [2] | IC50 [3] |
| --- | --- | --- | --- |
| Oc1cc2c(cc1O)CN(C(=S)NCCc1ccc(Cl)cc1)CCC2 [capsazepine] | 10.1 µM |  |  |
| C[C@@H]1O[C@@H](O[C@H]2[C@H](Oc3cc(O)c4c(c3)O[C@H](c3ccc(O)cc3)CC4=O)O[C@H](CO)[C@@H](O)[C@@H]2O)[C@H](O)[C@H](O)[C@H]1O [naringin] |  | 33.3 µM | 24.2 µM |
